Earlier results as cited in patent publication US4127529A, “Novel eicosapeptides, intermediates therefor and pharmaceutical compositions and methods employing said eicosapeptides” (priority 1977, dated 1978).

Assays:
[1] = injected directly into the brain of the rat
[2] = system: brain opiate receptor sites; details: natural peptide

H-Tyr-Gly-Gly-Phe-Met-OH [methionine enkephalin]
analgesic activity [1]: only weak analgesic agent of short duration
binding to partially purified brain opiate receptor sites [2]: binds stereo-specifically
